Tests used:
Male GK/Jcl rats = experiment: Cutaneous tissue blood flow in spontaneous diabetes rats; type: in vivo, rat
Protocol: Male GK/Jcl rats, a spontaneous model of non-insulin-dependent diabetes, were anesthetized by an intraperitoneal injection of thiobutabarbital sodium. Body temperature (rectal temperature) of the animals was maintained at approximately 37° C. throughout the experiment with a heating pad. After depilating the instep of the right hind limb with a depilatory cream, the cutaneous tissue blood flow (CTBF) was measured before (base line) and 20 minutes after intravenous administration of Compound A or the vehicle using a non-contact type laser Doppler flowmeter (FLO-N1, Omegawave Inc., Japan). Data was expressed as % compared with the base line cutaneous tissue blood flow.

[1] = test system: streptozotocin-induced diabetic rats; experiment: Cutaneous tissue blood flow in streptozotocin-induced diabetic rats; type: in vivo, rat
Protocol: Diabetes was induced by single intravenous injection of 50 mg/kg streptozotocin (STZ) in 7-week-old male Crl: CD(SD) rats. Animals with plasma glucose levels 400 mg/dL or more on day 19 after the STZ treatment were used in this study. Three weeks after the STZ injection, animals were anesthetized by an intraperitoneal injection of thiobutabarbital sodium. Body temperature (rectal temperature) of the animals was maintained at approximately 37° C. throughout the experiment with a heating pad After depilating the instep of the right hind limb with a depilatory cream, the cutaneous tissue blood flow (CTBF) was measured continuously using a non-contact type laser Doppler flowmeter (FLO-N1, Omegawave Inc., Japan). The blood pressure and heart rate were simultaneously monitored. Compound A or the vehicle was intravenously administered to the animals over 10 min.

[2] = test system: male Japanese white rabbits; experiment: Intraocular pressure after topical eye application in rabbits; type: in vivo, rabbit; conditions: 0.0016% topical
Protocol: Eight male Japanese white rabbits (Std: JW/CSK) weighing approximately 2.5-3.5 kg were used in this study. The same eye of each animal was treated with the test compounds and the other eye was with the vehicle consistently throughout the study with a washout period between each treatment. Thirty microliters of each test compound solution was applied topically to one eye of each animal using a micropipette (Pipetman, Gilson, Inc., France). The contralateral control eye received an equal volume of the vehicle. The animals were dosed at approximately the same time each morning. After the animals were restrained in a holder, one drop of topical anesthetic (0.4% oxybuprocaine hydrochloride) was applied to both eyes and the IOP was measured with an applanation pneumatonometer (Model 30 Classic™, Mentor O & O, Inc., USA) before dosing, and at 1, 2, 4, 6, and 8 hours after dosing.

[3] = test system: platelet-rich plasma (PRP); experiment: ADP-induced platelet aggregation in rabbit platelet-rich plasma; type: cell-based; conditions: for Maximum aggregation: ADP-induced, mean ± S.E. of 3 rabbits; for Inhibition of platelet aggregation: vs vehicle control (100%)
Protocol: Four months old male Kbs: J.W. rabbits were housed in aluminum cages in an animal room controlled for roomtemperature (23-24° C.), relative humidity (55-74%), ventilation rate (10-20 times/hour) and 12-hour light/dark cycle (lighting: 7:00 a.m.-7:00 p.m.). The animals were feeded with solid diet for rabbits (120 g/animal/day) and water ad libitum from automatic eatering system. The animals were subjected to at least 6 days of quarantine and acclimation. During the period, their body weight measurements and general sign observations were conducted, and the animals judged to be in good health were used in this study.
A cannula was inserted into the common carotid artery of the rabbit under inhalation anesthesia of isoflurane. Nine parts of the blood samples obtained through the cannula were mixed with 1 part of 3.8 w/v % sodium citrate. After centrifugation of the blood samples for 10 min at 1,000 rpm, platelet-rich plasma (PRP) was collected from the top layer. Then the bottom layer was further centrifuged for 15 min at 3,000 rpm, and platelet-poor plasma (PPP) was collected from the top layer. The platelet counts of the PRP and PPP fractions were performed using an ADVIA120 Hematology system (ADVIA120, Bayer Medical Ltd.). The PRP fraction was diluted with the PPP fraction so that the platelet counts was adjusted to approximately 30×10^4 cells/μL. Thus obtained PRP (0.178 mL) was put into a cuvet, and pre-incubated on a warm bath at 37° C. for about 5 minutes. Test solution (0.022 mL) containing prostaglandin E1 or Compound A was added to the PRP. One minute later, 25 μM ADP solution (0.022 mL) was added and the degree of platelet aggregation was measured using a platelet aggregation measuring device (NBS hematolaser, Nikko Bioscience Inc.). For each test solution, a duplicate test was performed on the blood samples from 3 animals. Inhibition rate (%) was evaluated by comparing the aggregation in the test substance group with that in the vehicle control group (100%).

Male Wistar rats = experiment: Decreased peripheral microcirculation (cutaneous tissue blood flow) induced by ET-1 infusion in rats; type: in vivo, rat; conditions: 100 μg/kg i.v.; for blood pressure: ET-1 infused rats; for cutaneous tissue blood flow: flow decreased by ET-1 infusion, up to 60 min after administration, vs vehicle
Protocol: Male Wistar rats (7-week-old) were used in this study. Animals were anesthetized by intraperitoneal injection of thiobutabarbital sodium (80 mg/kg). Body temperature (rectal temperature) of the animals was maintained at approximately 37° C. throughout the experiment with a heating pad. After depilating the instep of the right hind limb with a depilatory cream, the cutaneous tissue blood flow was measured continuously using a non-contact type laser Doppler flowmeter (FLO-N1, Omegawave Inc., Japan). For measurements of mean arterial blood pressure, a polyethylene catheter placed in the left femoral artery was connected to a pressure transducer (TP-400T, Nihon Koden Inc., Japan) coupled to an amplifier (AP-641G, Nihon Koden Inc., Japan). The cutaneous tissue blood flow and blood pressure were recorded and analyzed using a computer system (HEM Ver. 3.5, Notocord Systems, France). Endothelin-1 (ET-1) was infused into the femoral artery at a rate of 200 pmol/kg/min with a syringe pump via the polyethylene catheter inserted retrogradely into the caudal epigastric artery branched from the right femoral artery for 15 minutes. Infusion rate of ET-1 was decreased to 20 pmol/kg/min after the termination of 200 pmol/kg/min infusion, and the decreased amount of ET-1 infusion was kept until the end of this study. The cutaneous tissue blood flow was decreased by the infusion of ET-1 into the femoral artery. When the cutaneous tissue blood flow was reached a new steady level (25 to 50 minutes after starting ET-1 infusion), vehicle or each test compound solution was administered to the animals over 2 minutes in a volume of 1 mL/kg via the polyethylene catheter placed in the left femoral vein. The administered amount of the test compound was 100 μg/kg. The cutaneous tissue blood flow and blood pressure were measured continuously and recorded every 5 minutes for 60 minutes after the administration of vehicle or each test solution.

Male Crl: CD(SD) rats = experiment: Cutaneous tissue blood flow in anesthetized rats; type: in vivo, rat
Protocol: Male Crl: CD(SD) rats were anesthetized by an intraperitoneal injection of thiobutabarbital sodium. Body temperature (rectal temperature) of the animals was maintained at approximately 37° C. throughout the experiment with a heating pad. After depilating the instep of the right hind limb with a depilatory cream, the cutaneous tissue blood flow CTBF) was measured before and 30 minutes after intravenous administration of Compound C (11-deoxy-13,14-dihyrdo-16,16-difluoro-PGE1) or the vehicle using a non-contact type laser Doppler flowmeter (FLO-N1, Omegawave Inc., Japan). The blood pressure and heart rate were also monitored.

CCCCC(F)(F)C(=O)CCC1CCC(=O)C1CCCCCCC(=O)O (centres unmarked) [Compound A, 11-deoxy-13,14-dihydro-15-keto-16,16-difluoro-PGE1]
Cutaneous Tissue Blood Flow compared with the base line (Male GK/Jcl rats; 20 μg/kg i.v., 20 minutes after administration, mean ± S.E., n=5): 122 ± 1 % | cutaneous tissue blood flow (in words) (Male GK/Jcl rats; spontaneous diabetes rats, i.v., compared with vehicle): significantly increased | Cutaneous Tissue Blood Flow, Pre ([1]; 30 μg/kg i.v. over 10 min, before dosing (baseline), mean ± S.E., n=5): 4.8 ± 0.5 mL/min/100 g tissue | blood pressure (BP) ([1]; STZ diabetic rats, i.v.): no effects | heart rate ([1]; STZ diabetic rats, i.v.): no effects | cutaneous tissue blood flow (in words) ([1]; STZ diabetic rats, i.v., compared with vehicle): significantly increased | IOP, 1 hr after administration ([2]; 30 μL, 1 hr, mean ± SE, n=8): 13.1 ± 0.6 mmHg | IOP, 2 hr after administration ([2]; 30 μL, 2 hr, mean ± SE, n=8): 14.5 ± 0.6 mmHg | IOP, 4 hr after administration ([2]; 30 μL, 4 hr, mean ± SE, n=8): 13.8 ± 0.8 mmHg | IOP, 6 hr after administration ([2]; 30 μL, 6 hr, mean ± SE, n=8): 15.1 ± 1.0 mmHg | IOP, 8 hr after administration ([2]; 30 μL, 8 hr, mean ± SE, n=8): 17.5 ± 1.3 mmHg | IOP, Pre ([2]; 30 μL, before dosing (baseline), mean ± SE, n=8): 17.0 ± 0.8 mmHg | intraocular pressure (in words) ([2]; vs vehicle-treated contralateral eye): significantly lowered | Maximum aggregation ([3]; 1 × 10^−5 g/mL): 36.8 ± 3.1% | Inhibition of platelet aggregation ([3]; 1 × 10^−5 g/mL): −1.4% | Maximum aggregation ([3]; 1 × 10^−6 g/mL): 36.2 ± 4.0% | Inhibition of platelet aggregation ([3]; 1 × 10^−6 g/mL): 0.3% | Maximum aggregation ([3]; 1 × 10^−7 g/mL): 35.2 ± 3.9% | Inhibition of platelet aggregation ([3]; 1 × 10^−7 g/mL): 3.0% | effect on platelet aggregation (in words) ([3]; up to the highest concentration (1×10^−5 g/mL) tested): no effect | blood pressure (Male Wistar rats): no significant effect | cutaneous tissue blood flow (Male Wistar rats): significantly increased

CCCCC(F)(F)C(O)CCC1CCC(=O)C1CCCCCCC(=O)O (centres unmarked) [Compound C, 11-deoxy-13,14-dihyrdo-16,16-difluoro-PGE1]
Cutaneous Tissue Blood Flow, After administration (Male Crl: CD(SD) rats; 10 μg/kg i.v., 30 minutes after administration, mean ± S.E., n=5): 13.0 ± 0.2 mL/min/100 g tissue | Cutaneous Tissue Blood Flow, Before administration (Male Crl: CD(SD) rats; 10 μg/kg i.v., before administration (baseline), mean ± S.E., n=5): 11.6 ± 0.3 mL/min/100 g tissue | blood pressure (Male Crl: CD(SD) rats; i.v.): no effects | heart rate (Male Crl: CD(SD) rats; i.v.): no effects | cutaneous tissue blood flow (in words) (Male Crl: CD(SD) rats; i.v., compared with vehicle treatment): significantly increased

CCCCC(F)(F)C(=O)CCC1CCC(=O)C1CCCCCCC(=O)OC(C)C (centres unmarked) [Compound B, 11-deoxy-13,14-dihydro-15-keto-16,16-difluoro-PGE1 isopropyl ester]
blood pressure (Male Wistar rats): no significant effect | cutaneous tissue blood flow (Male Wistar rats): significantly increased

CCCCC[C@H](O)/C=C/[C@H]1[C@H](O)CC(=O)[C@@H]1CCCCCCC(=O)O [PGE1, prostaglandin E1, reference compound]
Maximum aggregation ([3]; 1 × 10^−6 g/mL): 4.0 ± 0.7 % | Inhibition of platelet aggregation ([3]; 1 × 10^−6 g/mL): 89.0% | Maximum aggregation ([3]; 1 × 10^−7 g/mL): 3.2 ± 0.6 % | Inhibition of platelet aggregation ([3]; 1 × 10^−7 g/mL): 91.2% | Maximum aggregation ([3]; 1 × 10^−8 g/mL): 28.7 ± 3.6% | Inhibition of platelet aggregation ([3]; 1 × 10^−8 g/mL): 20.9%
